{
  "source": "paper PMC8805583",
  "about": "“Discovery of Herbacetin as a Novel SGK1 Inhibitor to Alleviate Myocardial Hypertrophy” (Advanced Science, 2021)",
  "key": {"[1]": {"target": "T1, SGK1 protein with the D177A mutation (Homo sapiens, UniProt O00141, D177A)", "T1 construct": "host or cells: HEK293T", "T1 sequence (O00141 1-431 D177A)": "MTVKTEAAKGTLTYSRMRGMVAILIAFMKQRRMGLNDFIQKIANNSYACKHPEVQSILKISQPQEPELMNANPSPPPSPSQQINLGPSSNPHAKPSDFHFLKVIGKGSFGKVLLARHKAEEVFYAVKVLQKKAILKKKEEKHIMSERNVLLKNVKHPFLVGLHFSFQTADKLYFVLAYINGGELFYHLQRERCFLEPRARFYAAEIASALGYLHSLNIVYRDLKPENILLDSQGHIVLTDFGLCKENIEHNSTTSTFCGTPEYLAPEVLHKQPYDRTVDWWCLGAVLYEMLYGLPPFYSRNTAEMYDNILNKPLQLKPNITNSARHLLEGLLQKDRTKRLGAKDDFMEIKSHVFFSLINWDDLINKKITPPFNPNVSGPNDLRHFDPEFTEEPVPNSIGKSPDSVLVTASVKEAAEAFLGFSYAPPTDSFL", "assay": "MS-based kinase inhibitory assay with FLAG-tagged mutated SGK1 immunoprecipitated from HEK293T", "type": "biochemical", "conditions": "normalized to WT SGK1", "excerpt": "To further elaborate the interaction between SGK1 and HBT, the SGK1‐HBT complex was constructed by molecular docking based on the SGK1 crystal structures retrieved from the Protein Data Bank (PDB). […] To explore the impacts of these three residues on the SGK1‐HBT binding, plasmids carrying respective SGK1 mutations (D177A, N227A, and T239A) were designed and transfected in the human embryonic kidney cells (HEK293T). The FLAG‐tagged wild‐type or mutated SGK1 protein lysates were collected by immunoprecipitation and examined for enzymatic activity in the presence of HBT using MS‐based kinase inhibitory assay.\nThe initial crystal structures of SGK1 (PDB entry: 3HDN, 3HDM, and 2R5T) were obtained from the Protein Data Bank (PDB). The prepared inhibitors were then docked by Glide with the extra precision (XP) scoring mode to estimate the binding affinity for each protein–ligand complex. The detailed process of docking has been described previously.^[ [46] ^] HEK293T cells were transfected with SGK1 mutant plasmids. After 24 h, cells were lysed and immunoprecipitated with anti‐FLAG antibody and beads. Immune complexes were washed with kinase buffer and incubated in kinase buffer with substrate peptide for 1 h at 30 ℃ followed by LC/MS measurement as described above. KINOMEscan Profiling Service and KinaseProfiler Service Assay were provided by Eurofins Discovery."}, "SGK1": {"target": "T2, SGK1 (Homo sapiens, UniProt O00141)", "T2 sequence (O00141 1-431)": "T1 sequence (O00141 1-431 D177A) with A177D", "assay": "KINOMEscan direct binding assay (Eurofins Discovery)", "excerpt": "To identify active compounds with SGK1 inhibitory activity from Ext.R, a novel mass‐spectrometry based kinase inhibitory assay was developed. A polypeptide sequence ([…], m/z: 618.6) derived from glycogen Synthase Kinase‐3(GSK3), a known substrate of SGK1, was optimized and synthesized. We subsequently used liquid chromatography coupled with mass spectrometry (LC/MS) to detect and quantify its phosphorylation level ([…](p)FAE, m/z:658.7) (Figure 3A).^[ [26] ^] Basal level SGK1 was supplemented to each well, and the peak area of phosphorylation was measured in the presence or absence of testing compounds. […] After investigating the major chemical constituents in Ext.R (Table S3, Supporting Information), a set of compounds in Ext.R were subsequently screened for their impacts on SGK1 activity. […] The direct interaction between HBT and SGK1 was further verified by temperature‐ and dose‐dependent cellular thermal shift assays (Figure 3E,F). We further performed a direct binding assay of HBT to SGK1 by KINOMEscan assay (Eurofins Discovery).\nThe initial crystal structures of SGK1 (PDB entry: 3HDN, 3HDM, and 2R5T) were obtained from the Protein Data Bank (PDB). The prepared inhibitors were then docked by Glide with the extra precision (XP) scoring mode to estimate the binding affinity for each protein–ligand complex. The detailed process of docking has been described previously.^[ [46] ^] […]"}, "ISO mice": {"test_system": "ISO mice", "assay": "ISO-induced cardiac hypertrophy in mice", "type": "in vivo", "description": "Finally, we assessed the cardioprotective effect of HBT in mice infused with the hypertrophic agonist isoproterenol (ISO). Mice were challenged with ISO for 21 days via subcutaneous injection and then were administered with 10 mg kg^−1 of HBT once per day until the mice were sacrificed (Figure 7A).\nFor isoproterenol (ISO)‐mediated cardiac hypertrophy, mice were randomly divided into 3 groups, control group (Ctrl), ISO group and ISO plus HBT group (HBT), 5 mg kg^−1 day^−1 ISO was given for 21 days by subcutaneous injection. The control mice were treated with 1% DMSO‐vehicle. At the same time, male C57BL/6 mice in HBT group were intraperitoneally injected with 10 mg kg^−1 d^−1 HBT diluted with a solution containing 1% DMSO and 99% saline. Echocardiography was performed on conscious mice using a Vevo 2100 system. M‐mode images of the left ventricular short axis were captured. After echocardiography evaluation, the mice were anesthetized via intraperitoneal injection of 240 mg kg^−1 pentobarbital sodium and were euthanized by excising the heart rapidly."}},
  "note": "Substitutions are numbered along the chain they refer to. Entries after “also recorded” stand apart in the source; their conditions may differ.",
  "data": [
    {"compound": "O=c1c(O)c(-c2ccc(O)cc2)oc2c(O)c(O)cc(O)c12", "note": "[HBT, herbacetin]", "values": [
      {"measurement": "inhibition of D177A-mutated SGK1 by HBT", "setting": "[1]", "value": "completely ablates; also recorded: almost completely lost its response"},
      {"measurement": "Kd", "setting": "SGK1; KINOMEscan, read-out: binding constants (Kds) for SGK1", "value": 840, "unit": "nM"},
      {"measurement": "Kd fold lower than EMD638683", "setting": "SGK1; same KINOMEscan assay", "value": 14, "unit": "fold"},
      {"measurement": "toxicity", "setting": "ISO mice; 10 mg kg−1 d−1 for 21 days", "value": "without causing any significant toxicity"},
      {"measurement": "left ventricular ejection fraction (EF%) and fraction shortening (FS%)", "setting": "ISO mice; ISO 5 mg kg−1 d−1 21 days, HBT 10 mg kg−1 d−1 intraperitoneally", "value": "increased"},
      {"measurement": "decreased Bcl-2 and MnSOD levels", "setting": "ISO mice; ISO mice", "value": "almost completely reversed"},
      {"measurement": "serum NT-proBNP", "setting": "ISO mice; ISO mice, ELISA", "value": "decreased level"},
      {"measurement": "heart weight/tibial length (HW/TL)", "setting": "ISO mice; ISO mice, HBT 10 mg kg−1", "value": "reduce the HW/TL level"},
      {"measurement": "left ventricular volume (LV Vol;d and LV Vol;s)", "setting": "ISO mice; ISO mice, HBT 10 mg kg−1", "value": "decreased"},
      {"measurement": "accumulation of collagen fibrosis", "setting": "ISO mice; ISO mice, Masson's staining", "value": "reduced"},
      {"measurement": "expression of p-SGK1, α-SMA and Col-3", "setting": "ISO mice; ISO mice, western blot", "value": "reduced expression"},
      {"measurement": "FoxO1 phosphorylation, STIM1 and Orai1 protein expression in heart tissue", "setting": "ISO mice; ISO mouse model", "value": "significantly decreased"},
      {"measurement": "level of HO-1 and Nrf2 in heart tissue", "setting": "ISO mice; ISO mouse model", "value": "increased"}
    ]}
  ]
}
